According to patent US5019573A, “Substituted dibenzofurans and methods of using same” (Euroceltique, S.A., priority 1989, dated 1991):
pIC50: −log10 of the molar value.

How the values were obtained:
[1] = test system: LTB4-induced degranulation of purified human neutrophils; assay: LTB4-induced neutrophil degranulation (myeloperoxidase release); type: cell-based; conditions: LTB4-induced MPO release; for inhibition at 30 µM: read-out: LTB-Induced Neutrophil Degranulation % Inhibition at 30 uM; for pIC50: concentration-response, read-out: LTB-Induced Neutrophil Degranulation I50
Experimental: (§1) Each compound was tested in two in vitro models of LTB4 induced cell function. The cellular responses measured are presumed to be mediated via specific interactions of LTB4 with cellular receptors.
(§2) The cellular responses studied include 1) LTB4 -induced degranulation (release of myeloperoxidase) from purified human neutrophils and 2) LTB4 -induced adhesion of human neutrophils to latex beads. Each putative antagonist was tested at 30 uM for its effect on each response. Selected compounds were tested in a concentration-response fashion.
(1) Neutrophil Degranulation Assay
Neutrophils are isolated from human venous blood via a twostep sedimentation procedure, and contaminating erythrocytes are selectively lysed. The neutrophils were preincubated in 0.25% Hanks buffer containing bovine serum albumin (BSA) with 5 ug Cytochalasin B/ml cells for 5 minutes at 37° C. Neutrophils (4×10^6) are added to stimuli (LTB4 or buffer control) in the presence and absence of antagonist in Krebs-Ringer buffer to a final volume of 1.0 ml, and incubated at 37° C. for appropriate periods of time. At the end of the reaction period the neutrophils are pelleted by centrifugation at 3000 rpm for 5 minutes at 4° C.
Aliquots (0.2 ml) of the supernatants are added to polystyrene tubes to which are added the following: 0.6 ml )>25% Hanks BSA, 0.5 ml MPO buffer (0.2 M NaPO4, pH 6.2) and to start the color reaction 0.2 ml of a 1:1 v/v 0.05% H2 O2 :1.25 mg/ml dimethoxybenzidine (DMB). The reaction is allowed to run at room temperature for 15 minutes and is stopped by the addition of 0.05 ml 2% sodium azide. The developed color is quantitated in a spectrophotometer at 460 nm. The amount of myeloperoxidase (MPO) released by LTB4 stimulation can thus be determined. In order to determine the total amount of MPO in the cells an unstimulated control tube of neutrophils is lysed using 0.01 ml 10% Triton TX and the total MPO is determined via the color reaction and spectrophotometer reading. The activity of a given concentration of LTB4 is expressed as the percentage of the total MPO released. The activity of antagonists at a given concentration is expressed as a percentage of inhibiton of LTB4 -induced MPO release at a single concentration cf LTB4.

[2] = test system: LTB4-induced adhesion of human neutrophils to latex beads; assay: LTB4-induced neutrophil latex bead adhesion; type: cell-based; conditions: albumin-coated latex beads, read-out: LTB-Induced Neutrophil Bead Adhesion % Inhibition at 30 uM
Experimental: as §1, §2
(2) Neutrophil Latex Bead Adhesion
Latex bead suspension (0.6 ml; 10% aqueous suspension; particle diameter=1u) is pipeted into a 1.5 ml eppendorf centrifuge tube. The beads are pelleted by centrifugation, the supernatant is discarded and the beads are washed 2 times with 1 ml 0.9% saline. To the pelleted beads is added 0.5 ml saline and 0.5 ml 20 mg/ml human serum albumin (HSA) in Krebs-Ringer buffer. Allow bead-albumin mixture to sit at room temperature for 10 minutes, centrifuge for 1 minute and remove the supernatant, and wash albumin-coated beads 3 times with saline. Resuspend the beads in 1 ml of Krebs-Ringer.
Human neutrophils are prepared as described for the neutrophil degranulation assay and 10^7 cells are added to 0.3 ml of Krebs-Ringerin the presence and absence of LTB4 and putative antagonist and are incubated at 37° for an appropriate period of time.
The albumin-coated beads are then added in 0.05 ml to give a final bead concentration of 1% v/v, resulting in a bead to neutrophil ratio of 100:1. The tubes containing cells and beads are then placed in an agitating water bath at 37° C. and 120 oscillation per minute for 10 minutes. The reaction is stopped by adding an equal volume of 2.5% gluteraldehyde in saline. The reaction tubes are allowed to stand at room temperature for 30 minutes. The cells are then washed 3 times (with centrifugation at 1000 rpm for 5 minutes) with saline to remove the unadhered latex beads and resuspended in 0.3 ml saline.
Wet mounts are prepared and adherence is examined by light microscopy at 400x. Adherence is scored by counting five randomly placed fields of at least 50 neutrophils per field. […] Activity of the antagonists is expressed as the percent inhibition of LTB4 induced adherence.

pIC50 [1]	Compound	inhibition at 30 µM [1] [%]	inhibition at 30 µM [2] [%]
5.05	CN(C)C(=O)CCCC(O)c1ccc2oc3ccc(C(O)Cc4ccccc4)cc3c2c1 (centres unmarked) [Compound 41, N,N-Dimethyl-5-[2-[8-(1-hydroxy)-2-phenylethyl]dibenzofuranyl}-5-hydroxypentanamide]	57	2
–	O=C(O)CCCC(O)c1ccc2oc3ccc(C(O)Cc4ccccc4)cc3c2c1 (centres unmarked) [Compound 40, Sodium 5-[2-[8-(1-Hydroxy)-2-phenylethyl]dibenzofuranyl]-5-hydroxypentanoate]	38	5
–	O=C(CCC(O)c1ccc2oc3ccc(C(O)Cc4ccccc4)cc3c2c1)N1CCCC1 (centres unmarked) [Compound 23, N-[4-[2-[8-(1-Hydroxy)-2-phenylethyl]dibenzofuranyl]-4-hydroxybutanoyl]pyrrolidine]	62	10
–	O=C(O)CC(O)c1ccc2oc3ccc(C(O)Cc4ccccc4)cc3c2c1 (centres unmarked) [Compound 11, 3-[2-[8-(1-Hydroxy)-2-phenylethyl]dibenzofuranyl]-3-hydroxypropionic Acid]	35	7
4.89	CN(C)C(=O)CC(O)c1ccc2oc3ccc(C(O)Cc4ccccc4)cc3c2c1 (centres unmarked) [Compound 12, N,N-Dimethyl-3-[2-[8-(1-hydroxy)-2-phenylethyl]dibenzofuranyl]-3-hydroxypropanamide]	100	14
–	CN(C)C(=O)CCC(O)c1ccc2oc3ccc(C(O)Cc4ccccc4)cc3c2c1 (centres unmarked) [Compound 22, N,N-Dimethyl-4-[2-[8-(1-hydroxy)-2-phenylethyl]dibenzofuran-2-yl]-4-hydroxybutanamide]	100	1
4.72	O=C(CCCC(O)c1ccc2oc3ccc(C(O)Cc4ccccc4)cc3c2c1)N1CCCC1 (centres unmarked) [Compound 42, N-[5-[2-[8-(1-Hydroxy)-2-phenylethyl]dibenzofuranyl]-5 hydroxypentanoyl]pyrrolidine]	100	12
